Data published in ChEMBL document CHEMBL6114986, “Vitexin alleviates lipid metabolism disorders and hepatic injury in obese mice through the PI3K/AKT/mTOR/SREBP-1c pathway” (Eur J Med Chem, 2025).
Activity calls are given as the source filed them. No cut-off for these calls is given here.

How the values were obtained:
Type in all cases: functional, organism-based
Mus musculus [1] = assay: Anti-obesity activity in C57BL/6 mouse assessed as initial weight at low dose administered intragastrically once daily for 5 weeks (reference value: 19.06 +/- 0.94 g); settings: route ig
Mus musculus [2] = assay: Anti-obesity activity in C57BL/6 mouse assessed as decrease in ratio of p-AKT/AKT levels in liver at low to high dose administered intragastrically once daily for 5 weeks by immunoblot analysis; settings: route ig
Mus musculus [3] = assay: Anti-obesity activity in C57BL/6 mouse assessed as reduction in liver IL-6 level at high dose administered intragastrically once daily for 5 weeks relative to control; parameters: scale not given: the % may be the effect or the level left; settings: route ig
Mus musculus [4] = assay: Anti-obesity activity in C57BL/6 mouse assessed as serum TC level at low dose administered intragastrically once daily for 5 weeks (reference value: 11.12 +/- 0.32 mmol/g)
Mus musculus [5] = assay: Anti-obesity activity in C57BL/6 mouse assessed as decrease in ratio of p-IkappaBalpha/IkappaBalpha levels in liver at low to high dose administered intragastrically once daily for 5 weeks by immunoblot analysis; settings: route ig
Mus musculus [6] = assay: Anti-obesity activity in C57BL/6 mouse assessed as decrease in ratio of p-mTOR/mTOR levels in liver at low to high dose administered intragastrically once daily for 5 weeks by immunoblot analysis; settings: route ig
Mus musculus [7] = assay: Anti-obesity activity in C57BL/6 mouse assessed as liver IL-6 level at high dose administered intragastrically once daily for 5 weeks (reference value: 1042.25 +/- 21.85 pg/g); settings: route ig
Mus musculus [8] = assay: Anti-obesity activity in C57BL/6 mouse assessed as decrease in IL-1beta level in liver at low to high dose administered intragastrically once daily for 5 weeks by immunoblot analysis; settings: route ig
Mus musculus [9] = assay: Anti-obesity activity in C57BL/6 mouse assessed as reduction in liver TNF-alpha level at high dose administered intragastrically once daily for 5 weeks relative to control; parameters: scale not given: the % may be the effect or the level left; settings: route ig
Mus musculus [10] = assay: Anti-obesity activity in C57BL/6 mouse assessed as reduction in body weight at high dose administered intragastrically once daily for 5 weeks relative to control; parameters: scale not given: the % may be the effect or the level left; settings: route ig
Mus musculus [11] = assay: Anti-obesity activity in C57BL/6 mouse assessed as reduction in subabdominal fat thickness at low to high dose administered intragastrically once daily for 5 weeks by CT analysis; settings: route ig
Mus musculus [12] = assay: Anti-obesity activity in C57BL/6 mouse assessed as reduction in serum IL-18 level at high dose administered intragastrically once daily for 5 weeks relative to control; parameters: scale not given: the % may be the effect or the level left; settings: route ig
Mus musculus [13] = assay: Anti-obesity activity in C57BL/6 mouse assessed as serum TG level at low dose administered intragastrically once daily for 5 weeks (reference value: 13.13 +/- 1.10 mmol/g)
Mus musculus [14] = assay: Anti-obesity activity in C57BL/6 mouse assessed as decrease in ratio of p-NFkappaB/NFkappaB levels in liver at low to high dose administered intragastrically once daily for 5 weeks by immunoblot analysis; settings: route ig
Mus musculus [15] = assay: Anti-obesity activity in C57BL/6 mouse assessed as final weight at low dose administered intragastrically once daily for 5 weeks (reference value: 28.86 +/- 0.86 g); settings: route ig
Mus musculus [16] = assay: Anti-obesity activity in C57BL/6 mouse assessed as weight difference at low dose administered intragastrically once daily for 5 weeks (reference value: 9.80 +/- 0.97 g); settings: route ig
Mus musculus [17] = assay: Anti-obesity activity in C57BL/6 mouse assessed as liver index at low dose administered intragastrically once daily for 5 weeks (reference value: 3.97 +/- 0.09 %); settings: route ig
Mus musculus [18] = assay: Anti-obesity activity in C57BL/6 mouse assessed as liver index at high dose administered intragastrically once daily for 5 weeks (reference value: 3.97 +/- 0.09 %); settings: route ig
Mus musculus [19] = assay: Anti-obesity activity in C57BL/6 mouse assessed as initial weight at high dose administered intragastrically once daily for 5 weeks (reference value: 19.06 +/- 0.94 g); settings: route ig
Mus musculus [20] = assay: Anti-obesity activity in C57BL/6 mouse assessed as reduction in serum TG level at high dose administered intragastrically once daily for 5 weeks relative to control; parameters: scale not given: the % may be the effect or the level left; settings: route ig
Mus musculus [21] = assay: Anti-obesity activity in C57BL/6 mouse assessed as reduction in lipid droplets in liver at low to high dose administered intragastrically once daily for 5 weeks by H and E staining based analysis; settings: route ig
Mus musculus [22] = assay: Anti-obesity activity in C57BL/6 mouse assessed as decrease in ratio of p-PI3K/PI3K levels in liver at low to high dose administered intragastrically once daily for 5 weeks by immunoblot analysis; settings: route ig
Mus musculus [23] = assay: Anti-obesity activity in C57BL/6 mouse assessed as weight difference at high dose administered intragastrically once daily for 5 weeks (reference value: 9.80 +/- 0.97 g); settings: route ig
Mus musculus [24] = assay: Anti-obesity activity in C57BL/6 mouse assessed as liver IL-6 level at low dose administered intragastrically once daily for 5 weeks (reference value: 1042.25 +/- 21.85 pg/g)
Mus musculus [25] = assay: Anti-obesity activity in C57BL/6 mouse assessed as liver TNF-alpha level at low dose administered intragastrically once daily for 5 weeks (reference value: 5940.65 +/- 261.75 pg/g)
Mus musculus [26] = assay: Anti-obesity activity in C57BL/6 mouse assessed as serum IL-18 level at low dose administered intragastrically once daily for 5 weeks (reference value: 149.1 +/- 2.066 pg/ml)
Mus musculus [27] = assay: Anti-obesity activity in C57BL/6 mouse assessed as final weight at high dose administered intragastrically once daily for 5 weeks (reference value: 28.86 +/- 0.86 g); settings: route ig
Mus musculus [28] = assay: Anti-obesity activity in C57BL/6 mouse assessed as liver weight at high dose administered intragastrically once daily for 5 weeks (reference value: 1.15 +/- 0.04 g); settings: route ig
Mus musculus [29] = assay: Anti-obesity activity in C57BL/6 mouse assessed as liver weight at low dose administered intragastrically once daily for 5 weeks (reference value: 1.15 +/- 0.04 g); settings: route ig
Mus musculus [30] = assay: Anti-obesity activity in C57BL/6 mouse assessed as serum TC level at high dose administered intragastrically once daily for 5 weeks (reference value: 11.12 +/- 0.32 mmol/g)
Mus musculus [31] = assay: Anti-obesity activity in C57BL/6 mouse assessed as decrease in […] level in liver at low to high dose administered intragastrically once daily for 5 weeks by immunoblot analysis; settings: route ig
Mus musculus [32] = assay: Anti-obesity activity in C57BL/6 mouse assessed as reduction in serum TC level at high dose administered intragastrically once daily for 5 weeks relative to control; parameters: scale not given: the % may be the effect or the level left; settings: route ig
Mus musculus [33] = assay: Anti-obesity activity in C57BL/6 mouse assessed as reduction in inflammatory cell infiltration in liver at low to high dose administered intragastrically once daily for 5 weeks by H and E staining based analysis; settings: route ig
Mus musculus [34] = assay: Anti-obesity activity in C57BL/6 mouse assessed as serum IL-18 level at high dose administered intragastrically once daily for 5 weeks (reference value: 149.1 +/- 2.066 pg/ml)
Mus musculus [35] = assay: Anti-obesity activity in C57BL/6 mouse assessed as liver TNF-alpha level at high dose administered intragastrically once daily for 5 weeks (reference value: 5940.65 +/- 261.75 pg/g); settings: route ig
Mus musculus [36] = assay: Anti-obesity activity in C57BL/6 mouse assessed as reduction in adipocyte volume at low to high dose administered intragastrically once daily for 5 weeks by CT analysis; settings: route ig
Mus musculus [37] = assay: Anti-obesity activity in C57BL/6 mouse assessed as serum TG level at high dose administered intragastrically once daily for 5 weeks (reference value: 13.13 +/- 1.10 mmol/g)

For `O=c1cc(-c2ccc(O)cc2)oc2c([C@@H]3O[C@H](CO)[C@@H](O)[C@H](O)[C@H]3O)c(O)cc(O)c12`, the Activity (Mus musculus [1]) was 21 g, the Activity (Mus musculus [2]) was “Active” and the Activity (Mus musculus [3]) was 22.7%. For the same compound, the Activity (Mus musculus [4]) was 8.44 mmol/g, the Activity (Mus musculus [5]) was “Active” and the Activity (Mus musculus [6]) was “Active”. The Activity (Mus musculus [7]) was 806 pg/g, the Activity (Mus musculus [8]) was “Active” and the Activity (Mus musculus [9]) was 30.8%. For the same compound, the Activity (Mus musculus [10]) was 13.8%, the Activity (Mus musculus [11]) was “Active” and the Activity (Mus musculus [12]) was 27.6%. For the same compound, the Activity (Mus musculus [13]) was 8.71 mmol/g, the Activity (Mus musculus [14]) was “Active” and the Activity (Mus musculus [15]) was 26.7 g. For the same compound, the Activity (Mus musculus [16]) was 5.76 g, the Activity (Mus musculus [17]) was 3.6% and the Activity (Mus musculus [18]) was 3.23 g. The Activity (Mus musculus [19]) was 20.8 g, the Activity (Mus musculus [20]) was 37.3% and the Activity (Mus musculus [21]) was “Active”. For the same compound, the Activity (Mus musculus [22]) was “Active”, the Activity (Mus musculus [23]) was 4.07 g and the Activity (Mus musculus [24]) was 829 pg/g. For the same compound, the Activity (Mus musculus [25]) was 5140 pg/g, the Activity (Mus musculus [26]) was 125 pg/mL and the Activity (Mus musculus [27]) was 24.9 g. It also gave an Activity (Mus musculus [28]) of 0.8 g, an Activity (Mus musculus [29]) of 1.06 g and an Activity (Mus musculus [30]) of 7.81 mmol/g. For the same compound, the Activity (Mus musculus [31]) was “Active”, the Activity (Mus musculus [32]) was 29.8% and the Activity (Mus musculus [33]) was “Active”. The Activity (Mus musculus [34]) was 108 pg/mL, the Activity (Mus musculus [35]) was 4110 pg/g and the Activity (Mus musculus [36]) was “Active”. For the same compound, the Activity (Mus musculus [37]) was 8.23 mmol/g.
